Assay [1] deals with Staphylococcus aureus. Nature of the assay: Antibacterial activity against Staphylococcus aureus ATCC 25923 assessed as inhibition of bacterial growth. The assay is classed as functional, organism-based.
For assay [2], the system named is Staphylococcus aureus. In words: Antibacterial activity against Staphylococcus aureus ATCC 43300 assessed as inhibition of bacterial growth. Format: functional, organism-based.
For assay [3], the system named is Staphylococcus aureus. Nature of the assay: Antibacterial activity against Staphylococcus aureus ATCC 29213 assessed as inhibition of bacterial growth. Format: functional, organism-based.
The nature of assay [4]: Antioxidant activity assessed as DPPH radical scavenging activity. The assay is classed as functional.
The subject of assay [5] is RAW264.7. In words: Antiinflammatory activity in mouse RAW264.7 cells assessed as reduction in LPS-induced nitric oxide production. The assay is classed as functional, cell-based. Particulars: Mus musculus, RAW264.7.
The target in assay [6] is Cyclin-dependent kinase 1/cyclin B (Homo sapiens, UniProt P06493). Nature of the assay: Inhibition of CDK1/Cyclin B (unknown origin) in presence of ATP by scintillation counter analysis. Format: protein-complex assay.
Assay [7] concerns A549. In words: Cytotoxicity against human A549 cells assessed as reduction in cell viability. The assay is classed as functional, cell-based.
The subject of assay [8] is HL-60. In words: Cytotoxicity against human HL-60 cells assessed as reduction in cell viability. The assay is classed as functional, cell-based. Particulars: hl-60.
In assay [9] the test system is K562. In words: Cytotoxicity against human K562 cells assessed as reduction in cell viability. Format: functional, cell-based.
The nature of assay [10]: Antioxidant activity assessed as hydrogen peroxide scavenging activity. The assay is classed as functional.
In assay [11] the test system is HL-60. Nature of the assay: Cytotoxicity against human HL-60 cells assessed as reduction in cell viability by MTT assay. Format: functional, cell-based. (Tetrazolium dyes change colour on reduction, which living cells bring about.)
A short description of assay [12]: Inhibition of elastase (unknown origin). Also noted: species or system Homo sapiens.
Assay [13] concerns RAW264.7. Nature of the assay: Antiinflammatory activity in mouse RAW 264.7 cells assessed as inhibition of LPS-induced nitric oxide production measured after 48 hrs by Griess reagent assay. The assay is classed as functional, cell-based. Particulars: RAW264.7, 48 h.
Assay [14] concerns Mus musculus. In words: Anxiolytic activity in mouse assessed as increase in time spent in open arm at 5 mg/kg, po measured after 60 mins by elevated plus maze test. The assay is classed as functional. Particulars: 1 h.
Assay [15] concerns Mus musculus. In words: Anxiolytic activity in mouse assessed as number of entries in open arm at 5 mg/kg, po measured after 60 mins by elevated plus maze test. Format: functional. Particulars: 1 h.
The subject of assay [16] is Pichia kudriavzevii. Nature of the assay: Antifungal activity against Candida krusei assessed as inhibition of fungal growth measured after 48 hrs by CLSI based agar dilution method. The assay is classed as functional, organism-based.
Assay [17] has as its system MeWo. Nature of the assay: Cytotoxicity against human MeWo cells by MTT assay. The assay is classed as functional, cell-based.
In assay [18] the test system is CHO. In words: Cytotoxicity against CHO cells by MTT assay. The assay is classed as functional, cell-based. Particulars: Cricetulus griseus.
Assay [19] concerns CT26.WT. Nature of the assay: Cytotoxicity against mouse CT26.WT cells by MTT assay. The assay is classed as functional, cell-based.
In assay [20] the test system is B16-F10. In words: Cytotoxicity against mouse B16-F10 cells by MTT assay. The assay is classed as functional, cell-based.
A short description of assay [21]: Antioxidant activity assessed as ABTS radical scavenging activity. The assay is classed as functional.
The test system of assay [22] is BV-2. Nature of the assay: Antiinflammatory activity in mouse BV2 cells assessed as reduction in LPS-induced nitric oxide production. Format: functional, cell-based.
The subject of assay [23] is PC-3. In words: Induction of cell cycle arrest in human PC-3 cells measured for 24 hrs. Format: functional, cell-based. Particulars: PC-3, 24 h.
The test system of assay [24] is K562. Nature of the assay: Induction of cell cycle arrest in human K562 cells measured for 24 hrs. Format: functional, cell-based. Particulars: K562, 24 h.

The structures appear in SMILES notation. ≈ marks a conversion by molar mass, not a printed value. Where “and” joins values, the source holds several entries; their conditions need not be identical. Equal values may be shown once.

Broadly, the IC50 is the concentration needed to halve the response being measured. Regarding `COc1cc(O)c(-c2c(O)cc(OC)c3c2ccc2cc(O)ccc23)c2c1-c1ccc(O)cc1CC2` [CIRRHOPETALANTHRIN], the concentration for half-maximal inhibition (IC50) in assay [1], in [2] and in assay [3] was 25 µg/mL (≈ 52 µM) each time.

As usually defined, the EC50 is the midpoint of the concentration-response curve. With `COc1cc(O)c2c(c1)CCc1c-2ccc(OC)c1O`, the half-maximal effective concentration (EC50) in assay [4] was found to be 27.7 µM. Besides, in [4] (read-out: IC50), the IC50 turned out to be 27.7 µM.

Turning to `C=Cc1ccc(CO)c2c1-c1ccc(O)c(C)c1CC2`, in [5], the IC50 stood at 14.4 µM.

Take `COc1cc2c(c(O)c1OC)CCc1cc(O)c(OC)c(OC)c1-2`: in [6], the IC50 was determined as 0.07 µM.

Regarding `COc1cc(O)c2c(c1)CCc1cc(-c3cc(OC)c4c(c3O)CCc3cc(O)ccc3-4)c(O)cc1-2`, the IC50 was found to be 9.2 µM in assay [7], 1.3 µM in assay [8] and 6.1 µM in assay [9].

As to `COc1cc(O)c2c(c1)CCc1cccc(O)c1-2`, the 50% effective concentration (EC50) in [4] was 10 µM. For the same compound, in assay [4] (read-out: IC50), the half-inhibitory concentration (IC50) was 21.4 µM.

For the compound `COc1cc2cc(O)cc(OC)c2c2c(O)cccc12`, the results for the 50% inhibitory concentration (IC50) in assay [4] (read-out: IC50), in assay [10] and in assay [5] were 6.8 µM, 19 µM and 24.1 µM, respectively.

With `COc1cc(O)cc2ccc3cccc(O)c3c12` [MOSCATIN], the IC50 in [4] (read-out: IC50) was determined as 9.2 µM.

As for `COc1cc2c(c(OC)c1O)-c1ccc(O)cc1CC2` [FLAVANTHRIDIN], in [10], the half-maximal inhibitory concentration (IC50) worked out at 2 µM.

Consider `COC1=C(OC)C(=O)c2c(ccc3cccc(O)c23)C1=O`, for which the IC50 in assay [11] is 4.7 µM.

With `C=Cc1c(C)c(O)cc2c1CCc1c-2ccc(O)c1C`, the values for the half-maximal inhibitory concentration (IC50) in assay [12] and in [13] were 5.5 µM and 4.9 µM, respectively.

On to `Cc1c(O)ccc2c1CCc1cc(O)cc(CO)c1-2`, for which the IC50 in [5] was determined as 16 µM.

On to `C=Cc1c(C)c(O)cc2c1-c1ccc(O)c(C)c1CC2`, for which the Time in assay [14] was 58.8 s. The Activity in assay [15] amounted to 6.6. Further, the half-inhibitory concentration (IC50) in assay [13] was 3.1 µM.

`COc1cc(O)c2c(c1)CCc1cc(O)cc(O)c1-2`: the IC50 in [4] (read-out: IC50) was 10.2 µM.

As to `N=C(N)NN` [PIMAGEDINE], the concentration for half-maximal inhibition (IC50) in assay [4] (read-out: IC50) was determined as 21.7 µM.

Turning to `COc1cc(O)c2c(c1Cc1ccc(O)cc1)CCc1cc(O)ccc1-2`, in assay [4], the 50% inhibitory concentration (IC50) came out at 12.2 µg/mL.

For the compound `COc1cc(O)cc2c1-c1ccc(O)cc1CC2`, the IC50 in assay [4] (read-out: IC50) was 16.7 µM and 8.5 µM; in assay [10] it was 0.08 µM.

Regarding `COc1cc(O)c(-c2cc3c(cc2O)CCc2cc(OC)cc(O)c2-3)c(CCc2cccc(O)c2)c1`, the EC50 in [4] is 55.9 µM.

In the case of `O=c1c(O)c(-c2ccc(O)c(O)c2)oc2cc(O)cc(O)c12` [QUERCETIN], the half-maximal inhibitory concentration (IC50) in assay [5] came to 6.6 µM.

Take `COc1cc(O)c2c(c1)CCc1cc(O)c(-c3c(OC)cc(O)c4c3CCc3cc(O)ccc3-4)cc1-2`: in assay [4], the concentration giving a half-maximal response (EC50) amounted to 26.7 µM.

Take `COc1c(O)cc2c(c1OC)-c1ccc(O)cc1CC2` [ERIANTHRIDIN]: in [4] (read-out: IC50), the half-inhibitory concentration (IC50) was found to be 14.9 µM.

For the compound `COc1cc2c(c(O)c1C)CCc1c-2ccc(O)c1C=O`, the IC50 worked out at 31.3 µg/mL (≈ 110 µM) in assay [16]; 5 µg/mL (≈ 17.6 µM) in [17]; 6 µg/mL (≈ 21.1 µM) in assay [18]; 4 µg/mL (≈ 14.1 µM) in assay [19]; 8 µg/mL (≈ 28.1 µM) in assay [20].

Regarding `C=Cc1cc(O)cc2c1-c1ccc(O)c(C)c1CC2` [EFFUSOL], the Time in [14] is listed as 75.5 s. Further, in assay [15], the Activity is given as 7.8. For the same compound, in [5], the IC50 worked out at 15.1 µM.

As for `C=Cc1c(C)c(O)c(-c2c(O)c(C)c(C=C)c3c2ccc2c(C)c(O)ccc23)c2ccc3c(C)c(O)ccc3c12`, the Activity in assay [21] was 85.2%.

For the compound `CNC(=N)NCCC[C@H](N)C(=O)O` [TILARGININE], the concentration for half-maximal inhibition (IC50) in assay [22] was 16.3 µM.

In the case of `COc1cc(O)c2c(c1-c1c(OC)cc(O)c3c1CCc1cc(O)ccc1-3)CCc1cc(O)ccc1-2`, in [4], the 50% effective concentration (EC50) came out at 7.7 µM.

Take `Oc1ccc2c(c1)CCc1cc(O)cc(O)c1-2`: in [4] (read-out: IC50), the IC50 is 16.2 µM.

In the case of `Cc1c(C)c2c(c(C)c1O)CCC(C)(C(=O)O)O2` (stereo not drawn) [TROLOX], the 50% inhibitory concentration (IC50) in [4] (read-out: IC50) turned out to be 11.7 µM.

Consider `COC1=CC(=O)c2ccc3cc(OC)cc(O)c3c2C1=O` [DENBINOBIN], for which the IC50 in [23] turned out to be 7.5 µM; in assay [24], 1.8 µM.

Source of the values: ChEMBL document CHEMBL5244207, “Phenanthrenes: A Promising Group of Plant Secondary Metabolites” (J Nat Prod, 2018).
